Test results published in US7262204B2, “Modulation of CCR4 function” (Amgen Inc., priority 2000, dated 2007).

Target: T1, CCR4 (Homo sapiens, UniProt P51679)
T1 construct: host or cells: CEM cells
T1 sequence (P51679 1-360): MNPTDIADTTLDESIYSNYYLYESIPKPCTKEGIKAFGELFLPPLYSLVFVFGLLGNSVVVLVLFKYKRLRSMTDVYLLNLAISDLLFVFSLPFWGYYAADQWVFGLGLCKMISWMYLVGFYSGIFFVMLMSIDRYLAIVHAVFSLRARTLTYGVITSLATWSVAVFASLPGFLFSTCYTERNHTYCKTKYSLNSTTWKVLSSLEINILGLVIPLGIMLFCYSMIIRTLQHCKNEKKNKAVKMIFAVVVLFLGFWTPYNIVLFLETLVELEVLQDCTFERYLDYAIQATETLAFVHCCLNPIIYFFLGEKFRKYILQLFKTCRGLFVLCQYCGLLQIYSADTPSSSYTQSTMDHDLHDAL
Assay: CCR4 binding assay (inhibition of 125I-TARC binding to cells expressing CCR4)
Conditions: CCR4 antagonist activity
Text: This example illustrates a CCR4 binding assay that can be used for evaluating the compounds of the present invention.
Detection of Radiolabelled TARC and/or MDC Binding to CCR4
^125I-labelled TARC and MDC are available from commercial sources (e.g., Amersham-Pharmacia or Perkin Elmer Life Sciences). All buffers and materials are available from commercial sources (e.g., Gibco BRL, Sigma). To measure binding of ^125I-TARC or ^125I-MDC to cells expressing CCR4 (e.g., CEM cells, available from the ATCC), the ^125I-TARC or ^125I-MDC is diluted to a concentration of approximately 200 pM in a buffered saline solution (e.g., RPMI supplemented with 0.5% bovine serum albumin), and added to an equal volume of a suspension of cells (e.g., CEM cells at 5×10^6 cells/mL). The resulting mixture is incubated for a period of time (e.g., 2 hours). The unbound ^125I-TARC or ^125I-MDC is separated from the cells by filtration, e.g., by passage through GF/B filter plate (Packard Biosciences) pre-treated with 0.3% polyethyleneimine (Sigma), using a Packard Filtermate 96 (Packard Biosciences). The amount of ^125I-TARC or ^125I-MDC retained with the cells on the filterplate is measured by adding a small amount of scintillation fluid (e.g., 50 μL of Microscint-20, obtained from Packard Biosciences), and reading scintillation on appropriate detection equipment, e.g., a Packard TopCount 383 (Packard Biosciences).
Non-specific binding of ^125I-TARC or ^125I-MDC can be estimated by measuring the amount of ^125I-TARC or ^125I-MDC retained with the cells on the filterplate when the assay is performed in the presence of a large excess of unlabelled TARC or MDC.
Inhibition of ^125I-TARC or ^125I-MDC binding to CCR4 is defined as a decrease in the retention of ^125I-TARC or ^125I-MDC to the cells on the filterplate.
The assay described above varies only moderately from standardly used procedures, e.g., Imai et al. (1997) J. Biol. Chem. 272:15036-15042, Imai et al. (1998) J. Biol. Chem. 273:1764-1768.

SMILES | IC50 [nM]
CC(C)CN(Cc1csc(Nc2cccc3ccccc23)n1)CC(C)C [Compound 15] | > 1000
CC(C)CN(CC(C)C)C(C)c1csc(Nc2cccc3ccccc23)n1 (stereo not shown) [Compound 18] | > 1000
c1ccc(CN2CCc3sc(Nc4cccc5ccccc45)nc3C2)cc1 [Compound 20] | > 1000
Clc1ccc2nc(Nc3cccc4ccccc34)sc2c1 [Compound 19] | < 1000
